# From PubChem BioAssay (NCI)
# Several values for one entry are separate records, joined by “and”; a condition that tells them apart may be missing. Equal entries are not always repeated.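 Values below derive from 48-hour exposures of cells grown in 96-well plates, with endpoints linearly interpolated between the two concentrations bracketing the appropriate inhibition level. GI50 = concentration required for 50% inhibition of growth. At the TGI there is no net growth.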
# Columns and labels:
# Experiment in all cases: NCI anticancer screen, dose series, 48 h
# HCT-116 colon = system: HCT-116 colon
# HL-60(TB) leukemia = system: HL-60(TB) leukemia
# HOP-62 NSCLC = system: HOP-62 NSCLC
# MDA-MB-435 = system: MDA-MB-435
# NCI-H23 lung = system: NCI-H23 lung
# SF-539 CNS = system: SF-539 CNS
# SK-MEL-5 melanoma = system: SK-MEL-5 melanoma
# SN12C renal = system: SN12C renal
# U251 CNS = system: U251 CNS
# UO-31 renal = system: UO-31 renal
SMILES,GI50 (HCT-116 colon),TGI (HCT-116 colon),TGI (HL-60(TB) leukemia) [µM],GI50 (HOP-62 NSCLC) [µM],TGI (HOP-62 NSCLC),TGI (MDA-MB-435) [µM],GI50 (NCI-H23 lung),GI50 (SF-539 CNS),TGI (SF-539 CNS),GI50 (SK-MEL-5 melanoma) [µM],GI50 (SN12C renal) [µM],TGI (SN12C renal),GI50 (U251 CNS) [µM],TGI (U251 CNS),GI50 (UO-31 renal) [µM],TGI (UO-31 renal),GI50 (HL-60(TB) leukemia) [µM],GI50 (MDA-MB-435) [µM],TGI (NCI-H23 lung) [µM],TGI (SK-MEL-5 melanoma) [µM]
COc1ccc(/C=C\c2cc(OC)c(OC)c(OC)c2)c(O)c1O,0.136 µM and 1.33 µM,14.3 µM and 24 µM,0.376,1.98,68.8 µM and 109 µM,0.0163,0.0598 µM and 0.0848 µM,< 0.0264 µM and 0.05 µM,0.0821 µM and 0.2 µM,< 0.015,0.296,25.9 µM and 28.4 µM,0.0933,18.7 µM and 6.09 µM,6.76,33.7 µM and > 77.8 µM,,,,
O=S(=O)(Nc1ccc2ccccc2c1)c1ccc(-c2cnc(C3CC3)o2)cc1,0.746 µM,12.7 µM,6.99,1.3,17.1 µM,0.598,3.38 µM,1.17 µM,3.92 µM,0.829,3.69,17.3 µM,1.25,15.7 µM,1.68,18.8 µM,0.407,0.214,22.5,12.7
NNC(=S)Nc1cccc(Cl)c1,,> 100 µM,> 100,,> 100 µM,> 100,,,> 100 µM,,,> 100 µM,,> 100 µM,,> 100 µM,,,> 100,> 100
O=C(Cn1c(C(=O)c2ccccc2)nc2ccccc21)c1ccc(F)cc1,3.28 µM,> 100 µM,5.9,9.44,> 100 µM,,19.4 µM,16 µM,> 100 µM,4.13,> 30.7,> 100 µM,4.11,> 100 µM,> 43.8,> 100 µM,1.65,1.19,> 100,> 82.2
CC(=O)NC(CCCCN(Cc1ccccc1)C(=O)N(CCCl)N=O)C(=O)NCc1ccccc1 (stereo unspecified),,> 62.6 µM,65.4,,47 µM,> 100,,,28.5 µM,,,> 77.8 µM,,39.7 µM,,57.2 µM,,,50.3,> 100
Cc1cn2c(/C=C3/C(=O)Nc4ccc(F)cc43)c(C)nc2s1,2.92 µM,> 50 µM,8.15,8.81,> 50 µM,2.97,7.85 µM,7.29 µM,18.4 µM,2.31,8.56,27.4 µM,5.96,> 50 µM,6.62,40.8 µM,1.98,1.26,> 50,9.61
O=C(Nc1nc(-c2ccc(Cl)cc2)nc2c1sc(=S)n2-c1ccccc1)C(F)(F)F,2.63 µM,8.04 µM,> 100,2.83,7.98 µM,> 100,5.45 µM,1.98 µM,3.88 µM,8.23,11.3,45.3 µM,3.23,9.87 µM,1.87,4.04 µM,> 100,5.4,26.8,32.3
CC1=NN(C(=O)c2ccncc2)C(=O)C1N=Nc1ccc2ccccc2c1 (stereo unspecified),,> 100 µM,> 20.6,,> 100 µM,15.2,,,> 100 µM,,,> 100 µM,,> 100 µM,,> 100 µM,,,> 100,> 100
CC(C)(C)c1ccc(O)c(CN(Cc2cc(C(C)(C)C)ccc2O)C2CCCCC2)c1,,30.6 µM,33.3,,46.5 µM,29.8,,,31 µM,,,42.1 µM,,30.4 µM,,99.9 µM,13.9,,48.7,28.4
O=C(NNC(=S)Nc1ccccc1)c1ccccn1,3.02 µM,> 100 µM,7.85,5.52,> 100 µM,> 100,6.95 µM,2.43 µM,20.8 µM,2.11,2.99,> 100 µM,1.49,> 100 µM,0.95,16.9 µM,2.58,4.29,> 100,> 100
